These results are taken from patent US20250154172A1, “PRMT5 INHIBITORS AND USES THEREOF” (Gilead Sciences, Inc., priority 2023, published 2025).

Each structure is given as a SMILES string.

For this test, the system named is HCT116 MTAP-deleted cell lines. In words: Cell viability assay for HCT116 isogenic pair (CellTitre-Glo, 7 days). It counts as cell-based. The note with it: Homo sapiens, HCT-116, 168 h, 7 days of treatment, cell line not given. How it is done: Control compounds were analyzed in parallel each time for quality control.
In Brief, on Day −1, a serial dilution of stock compounds in DMSO was performed using BioMek liquid handlers and dispensed using Echo acoustic dispenser into 384 well plates. Both tool compounds and sample compounds were spotted in the same plate for a dose response of PRMT5 inhibitors. Compound plates were stored as frozen until the cells were ready for seeding.
On Day 0, 100 HCT WT or HCT116 MTAP-deleted cells were seeded in compound-containing 384 well plates (50 μl per well) in RPMI 1640 media supplemented with 10% heat inactivated fetal bovine serum, Glutamax and penicillin streptomycin using EL460 liquid dispenser 5 μl cassette (BioTek, part no. 7170011). After equilibrating the plate in room temperature, the cells were incubated for 7 days inside the sealed incubator set at 37° C. with 90% humidity and 5% CO2.
On Day 7, the viability of cells was measured using a CTG assay kit (CellTitre-Glo; Promega cat no. G7573). Shortly, 40 μl per well of luminescent cell viability assay reagent were dispensed using EL460 liquid dispenser 5 μl cassette. CTG luminescence signal was measured using an EnVision plate reader (PerkinElmer) in accordance with manufacturer's instruction. The CCso values for each compound after 7 days of treatment were calculated using 4 parameter non-linear logistical curve fit.
For the cell viability assay ie CC50 shown in nM in Table 3.
The compound `Cn1ncc2c(N)nc3cnc(C(=O)N4CCC[C@@H]5Oc6cc(OC(F)(F)F)ccc6[C@@H]54)cc3c21` [Example Ca-6, (4-amino-1-methyl-1H-pyrazolo[4,3-c][1,7]naphthyridin-8-yl)((4aS,9bS)-7-(trifluoromethoxy)-3,4,4a,9b-tetrahydrobenzofuro[3,2-b]pyridin-1(2H)-yl)methanone] had a CC50 of 8 nM.
`Cn1ncc2c(N)nc3cnc(C(=O)N4CCC[C@@H]5Oc6c(ccc(OC(F)(F)F)c6F)[C@@H]54)cc3c21` [Example Ca-7, (4-amino-1-methyl-1H-pyrazolo[4,3-c][1,7]naphthyridin-8-yl)((4aS,9bS)-6-fluoro-7-(trifluoromethoxy)-3,4,4a,9b-tetrahydrobenzofuro[3,2-b]pyridin-1(2H)-yl)methanone] returned a 50% cytotoxic concentration (CC50) of 13 nM.
In turn, `Cn1ncc2c(N)nc3ccc(C(=O)N4CCCC5OCc6cc(C(F)(F)F)ccc6C54)cc3c21` (centres unmarked) [Example Ca-9, (4-amino-1-methyl-1H-pyrazolo[4,3-c]quinolin-8-yl)(8-(trifluoromethyl)-2,3,4,4a,6,10b-hexahydro-1H-isochromeno[4,3-b]pyridin-1-yl)methanone] returned a CC50 of 56 nM.
The figure for `C[C@H]1CN(C(=O)c2cc3c(cn2)nc(N)c2cnn(C)c23)[C@H]2c3ccc(C(F)(F)F)cc3C[C@H]2O1` [Example Ca-13, (4-amino-1-methyl-1H-pyrazolo[4,3-c][1,7]naphthyridin-8-yl)((2S,4aS,9aR)-2-methyl-7-(trifluoromethyl)-2,3,9,9a-tetrahydroindeno[2,1-b][1,4]oxazin-4(4aH)-yl)methanone] is 17 nM.
Compound `Cn1ncc2c(N)nc3cnc(C(=O)N4CC[C@H]5C[C@@H]4c4ccc(OC(F)F)cc45)cc3c21` [Example Ca-15, (4-amino-1-methyl-1H-pyrazolo[4,3-c][1,7]naphthyridin-8-yl)((1R,5S)-7-(difluoromethoxy)-1,3,4,5-tetrahydro-2H-1,5-methanobenzo[c]azepin-2-yl)methanone] came in with a CC50 of 10 nM.
`Cn1ncc2c(N)nc3cnc(C(=O)N4CC[C@@H]5C[C@H]4c4ccc(OC(F)F)cc45)cc3c21` [Example Ca-16, (4-amino-1-methyl-1H-pyrazolo[4,3-c][1,7]naphthyridin-8-yl)((1S,5R)-7-(difluoromethoxy)-1,3,4,5-tetrahydro-2H-1,5-methanobenzo[c]azepin-2-yl)methanone] showed a 50% cytotoxic concentration (CC50) of 91 nM.
Compound `C[C@@H]1C[C@@H]2Oc3cc(C(F)(F)F)ccc3[C@@H]2N(C(=O)c2cc3c(cn2)nc(N)c2cnn(C)c23)C1` [Example Ca-17, (4-amino-1-methyl-1H-pyrazolo[4,3-c][1,7]naphthyridin-8-yl)((3R,4aS,9bS)-3-methyl-7-(trifluoromethyl)-3,4,4a,9b-tetrahydrobenzofuro[3,2-b]pyridin-1(2H)-yl)methanone] came in with a CC50 of 7 nM.
Regarding `Nc1nc2cnc(C(=O)N3CC[C@H]4C[C@@H]3c3ccc(C(F)(F)F)nc3O4)cc2c2c1COC2` [Example Ca-18, (4-amino-1,3-dihydrofuro[3,4-c][1,7]naphthyridin-8-yl)((2S,6R)-9-(trifluoromethyl)-3,4-dihydro-2H-2,6-methanopyrido[2,3-b][1,5]oxazocin-5(6H)-yl)methanone], it took 34 nM to reach half-maximal cytotoxicity (CC50).
For the compound `Cn1ncc2c(N)nc3cnc(C(=O)N4CCC[C@@H]5Oc6cc(C(F)(F)F)ccc6[C@@H]54)cc3c21` [Example Ca-19, (4-amino-1-methyl-1H-pyrazolo[4,3-c][1,7]naphthyridin-8-yl)((4aS,9bS)-7-(trifluoromethyl)-3,4,4a,9b-tetrahydrobenzofuro[3,2-b]pyridin-1(2H)-yl)methanone], the CC50 stood at 6 nM.
Consider `Cn1ncc2c(N)nc3ccc(C(=O)N4CCOC5CCc6ccccc6C54)cc3c21` (centres unmarked) [Example Ca-20, 2,3,4a,5,6,10b-hexahydrobenzo[f][1,4]benzoxazin-1-yl-(4-amino-1-methyl-pyrazolo[4,3-c]quinolin-8-yl)methanone], for which the CC50 turned out to be 46 nM.
`C[C@H]1CN(C(=O)c2cc3c(cc2F)nc(N)c2cnn(C)c23)[C@H]2c3ccc(C(F)(F)F)cc3C[C@H]2O1` [Example Ca-22, (4-amino-7-fluoro-1-methyl-1H-pyrazolo[4,3-c]quinolin-8-yl)((2S,4aS,9aR)-2-methyl-7-(trifluoromethyl)-2,3,9,9a-tetrahydroindeno[2,1-b][1,4]oxazin-4(4aH)-yl)methanone] showed a CC50 of 11 nM.
The figure for `Cn1ncc2c(N)nc3cnc(C(=O)N4CCO[C@@H]5Cc6cc(Br)c(F)cc6[C@@H]54)cc3c21` [Example Ca-29, (4-amino-1-methyl-1H-pyrazolo[4,3-c][1,7]naphthyridin-8-yl)((4aS,9aR)-7-bromo-6-fluoro-2,3,9,9a-tetrahydroindeno[2,1-b][1,4]oxazin-4(4aH)-yl)methanone] is 5 nM.
Regarding `Cn1ncc2c(N)nc3cnc(C(=O)N4CCO[C@@H]5Cc6cc(Br)ccc6[C@@H]54)cc3c21` [Example Ca-33, (4-amino-1-methyl-1H-pyrazolo[4,3-c][1,7]naphthyridin-8-yl)((4aS,9aR)-7-bromo-2,3,9,9a-tetrahydroindeno[2,1-b][1,4]oxazin-4(4aH)-yl)methanone], the CC50 worked out at 9 nM.
Regarding `Cn1ncc2c(N)nc3cnc(C(=O)N4CCO[C@@H]5Cc6cc(C7CC7)ccc6[C@@H]54)cc3c21` [Example Ca-34, (4-amino-1-methyl-1H-pyrazolo[4,3-c][1,7]naphthyridin-8-yl)((4aS,9aR)-7-cyclopropyl-2,3,9,9a-tetrahydroindeno[2,1-b][1,4]oxazin-4(4aH)-yl)methanone], it took 62 nM to reach half-maximal cytotoxicity (CC50).
Compound `Cn1ncc2c(N)nc3cnc(C(=O)N4CCO[C@@H]5Cc6cc(Cl)ccc6[C@@H]54)cc3c21` [Example Ca-35, (4-amino-1-methyl-1H-pyrazolo[4,3-c][1,7]naphthyridin-8-yl)((4aS,9aR)-7-chloro-2,3,9,9a-tetrahydroindeno[2,1-b][1,4]oxazin-4(4aH)-yl)methanone] came in with a CC50 of 36 nM.
As for `Cc1ccc2c(c1)C[C@H]1OCCN(C(=O)c3cc4c(cn3)nc(N)c3cnn(C)c34)[C@@H]21` [Example Ca-36, (4-amino-1-methyl-1H-pyrazolo[4,3-c][1,7]naphthyridin-8-yl)((4aS,9aR)-7-methyl-2,3,9,9a-tetrahydroindeno[2,1-b][1,4]oxazin-4(4aH)-yl)methanone], the CC50 was determined as 95 nM.
In turn, `Cn1ncc2c(N)nc3cnc(C(=O)N4CC[C@H]5C[C@@H]4c4ccc(Cl)c(F)c45)cc3c21` [Example Ca-42, (4-amino-1-methyl-1H-pyrazolo[4,3-c][1,7]naphthyridin-8-yl)((1R,5S)-7-chloro-6-fluoro-1,3,4,5-tetrahydro-2H-1,5-methanobenzo[c]azepin-2-yl)methanone] showed a CC50 of 25 nM.
In turn, `Cn1ncc2c3cc(C(=O)N4CCC[C@@H]5Oc6cc(C(F)(F)F)ccc6[C@@H]54)ncc3nc(N)c21` [Example Ca-43, (4-amino-3-methyl-3H-pyrazolo[3,4-c][1,7]naphthyridin-8-yl)((4aS,9bS)-7-(trifluoromethyl)-3,4,4a,9b-tetrahydrobenzofuro[3,2-b]pyridin-1(2H)-yl)methanone] came in with a CC50 of 56 nM.
`Cn1ncc2c3cc(C(=O)N4CC[C@H]5C[C@@H]4c4ccc(C(F)(F)F)cc4O5)ncc3nc(N)c21` [Example Ca-44, (4-amino-3-methyl-3H-pyrazolo[3,4-c][1,7]naphthyridin-8-yl)((2S,6R)-9-(trifluoromethyl)-3,4-dihydro-2H-2,6-methanobenzo[b][1,5]oxazocin-5(6H)-yl)methanone] returned a CC50 of 139 nM.
For `Cn1ncc2c(N)nc3cnc(C(=O)N4CC[C@H]5C[C@@H]4c4ccc(C(F)(F)F)cc4O5)cc3c21` [Example Ca-45, (4-amino-1-methyl-1H-pyrazolo[4,3-c][1,7]naphthyridin-8-yl)((2S,6R)-9-(trifluoromethyl)-3,4-dihydro-2H-2,6-methanobenzo[b][1,5]oxazocin-5(6H)-yl)methanone], the CC50 stood at 5 nM.
`Nc1nc2cnc(C(=O)N3CC[C@H]4C[C@@H]3c3ccc(OC(F)(F)F)cc3O4)cc2c2c1COC2` [Example Ca-46, (4-amino-1,3-dihydrofuro[3,4-c][1,7]naphthyridin-8-yl)((2S,6R)-9-(trifluoromethoxy)-3,4-dihydro-2H-2,6-methanobenzo[b][1,5]oxazocin-5(6H)-yl)methanone] registered a CC50 of 25 nM.
Take `[2H]C1([2H])CC[C@@H]2Oc3cc(C(F)(F)F)ccc3[C@@H]2N1C(=O)c1cc2c3c(c(N)nc2cn1)COC3` [Example Ca-48, (4-amino-1,3-dihydrofuro[3,4-c][1,7]naphthyridin-8-yl)((4aS,9bS)-7-(trifluoromethyl)-3,4,4a,9b-tetrahydrobenzofuro[3,2-b]pyridin-1(2H)-yl-2,2-d2)methanone]: the CC50 stood at 12 nM.
For the compound `C[C@@H]1CN(C(=O)c2cc3c(cn2)nc(N)c2cnn(C)c23)[C@H]2c3ccc(C(F)(F)F)cc3C[C@H]2O1` [Example Ca-49, (4-amino-1-methyl-1H-pyrazolo[4,3-c][1,7]naphthyridin-8-yl)((2R,4aS,9aR)-2-methyl-7-(trifluoromethyl)-2,3,9,9a-tetrahydroindeno[2,1-b][1,4]oxazin-4(4aH)-yl)methanone], the CC50 was 26 nM.

As a reminder, the CC50 is the concentration at which the toxic effect on the cells reaches its halfway point. A higher CC50 goes with better tolerance by the cells.
